In patent US9328118B2, “Nitrogen-containing bicyclic aromatic heterocyclic compound” (ASTELLAS PHARMA INC., priority 2012, dated 2016):

Experiments:
[1] = system: MHC class II expression in B220 positive B cells of mouse spleen cells; assay: In vitro MHC class II expression inhibitory effect using mouse spleen cells (LPS-stimulated B cells, flow cytometry); format: cell-based, C57BL/6 mice; details: B-cell, C57BL/6 spleen cells, LPS 2 μg/mL, 48 hours, B220 positive B cells, read-out: IC50 value of MHC class II expression inhibition (Data 2)
Description: Test Example 2 Evaluation of In Vitro MHC Class II Expression Inhibitory Effect Using Mouse Spleen Cells (Cell Evaluation System)
In antigen-presenting cells, the inhibition of cathepsin S inhibits the expression of MHC class II molecules. […] For an increased expression of MI-IC class II in B cells, the inhibitory effect of the compound represented by formula (I) was examined.
First, spleen cells collected from C57BL/6 mice were seeded in a 96-well plate so as to be a 1×10^5 cells/well, then, 5-fold dilution of 10 mM DMSO solution of the test compound was serially performed with RPMI 1640 medium (including 10% fetal bovine serum (FCS), 5×10^−5 M 2-mercaptoethanol, 50 IU/mL penicillin and 50 μg/mL streptomycin) nine times such that the final concentration becomes 0.026 nM to 10 μM, and the resultant products were added thereto (the final DMSO concentration was 0.1%). At the same time, LPS (Sigma L4005) was added to the wells such that the final concentration becomes 2 μg/mL, and culture was performed at 37° C. for 48 hours in 5% CO2. After culturing, the cells were stained at 4° C. for 20 minutes with PE-labeled streptavidin (BD BIOSCIENCE 554061) and biotin-labeled YAe antibody (EBIOSCIENCE 13-5741-85) together with FITC-labeled anti-mouse B220 antibody (BD BIOSCIENCE 553088), and an expression level (fluorescence intensity of YAe-biotin/streptavidin-PE) of MHC class II to which Ea peptide in B220 positive B cells was bonded was measured using a flow cytometry system (Guava EasyCyte Plus System, manufactured by Millipore Corporation). A value at the time of unstimulation of LPS in which the test compound was not added and a value at the time of stimulation of LPS in which the test compound was not added were set to 100% inhibition and 0% inhibition, respectively, then, an inhibition rate at each concentration was determined, and IC50 values were calculated by a linear regression method. In the Table, Ex represents Example compound No., and Data 2 represents an IC50 value (nM).

human cathepsin S = human cathepsin S (Homo sapiens (Human), UniProt P25774); assay: In vitro human cathepsin S inhibitory activity (VVR-AMC fluorescence); format: biochemical; details: human cathepsin S enzyme, substrate VVR-AMC 40 μM, pH 4.5, 37° C.; read-out: IC50 value of the human cathepsin S inhibitory activity (Data 1)
Chain of human cathepsin S (P25774 115-331): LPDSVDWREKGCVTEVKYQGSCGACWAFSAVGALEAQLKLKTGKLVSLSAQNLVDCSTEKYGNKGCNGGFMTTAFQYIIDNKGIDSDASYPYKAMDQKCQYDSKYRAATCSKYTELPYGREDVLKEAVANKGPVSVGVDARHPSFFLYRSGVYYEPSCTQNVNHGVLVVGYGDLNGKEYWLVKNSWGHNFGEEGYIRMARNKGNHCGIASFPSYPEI
Description: Test Example 1 Measurement of a In Vitro Human Cathepsin S Inhibitory Activity
5 μL of a human cathepsin S enzyme (R&D1183-CY-010) was added to a 96-well plate so as to be 20 ng/well. […] A reaction rate at the time of not adding an enzyme in which the test compound was not added and a reaction rate at the time of adding an enzyme in which the test compound was not added were set to 100% inhibition and 0% inhibition, respectively, then, an inhibition rate at each concentration was determined, and IC50 values were calculated by a linear regression method. In the Table, Ex represents Example compound No., and Data 1 represents an IC50 value (nM) of the human cathepsin S inhibitory activity.

[2] = system: OVA specific IgG antibody titer; assay: Antibody production inhibitory effect in mouse OVA-induced antibody production model; format: in vivo, BALB/c male mice
Description: Test Example 4 Evaluation of Antibody Production Inhibitory Effect in Mouse OVA-Induced Antibody Production Model
Evaluation of an antibody production inhibitory effect in vivo was performed.
The BALB/c male mice were sensitized by intraperitoneal administration of 200 μL of an emulsion consisting of 100 μg of ovalbumin (OVA) (SIGMA A5503) and 100 μL of a complete Freund's adjuvant (CFA) (DIFCO 231131) (Day 0), and a week after that, the mice were sensitized by intraperitoneal administration of 200 μL of an emulsion consisting of 50 μg of OVA and 100 μL of an incomplete Freund's adjuvant (IFA) (DIFCO 263910) (Day 7). The test compound dissolved in a vehicle (30% propylene glycol solvent (propylene glycol:HCO40:Tween 80=4:2:1)/HCl (2 equivalents with respect to the test compound)/water) was orally administered (dose: 0.3 mg/kg, 1 mg/kg, or 3 mg/kg) at 10 mL/kg/day from Day 0 to Day 14, and an OVA specific IgG antibody titer in blood plasma at Day 14 was evaluated. Measurement of antibody titer was carried out using a blood plasma sample which was diluted 40,000 times by an ELISA method, and the antibody titer was represented as a ratio with respect to control blood plasma. An antibody titer of a mouse to which the vehicle was orally administered at 10 mL/kg/day from Day 0 to Day 14 was set to 0% inhibition, an antibody titer of a normal mouse to which the vehicle was orally administered at 10 mL/kg/day from Day 0 to Day 14 and which was not sensitized with OVA was set to 100% inhibition, and the inhibition rate at the time of the test compound administration was calculated.

[3] = system: MHC class II expression in peripheral blood B cells; assay: Ex vivo MHC class II expression inhibitory effect using mouse peripheral blood after oral administration; format: in vivo, C57BL/6 mice; details: blood collected after 3 hours, LPS 15 hours
Description: Test Example 3 Evaluation of Ex Vivo MHC Class II Expression Inhibitory Effect Using Mouse Peripheral Blood
The expression inhibitory effect of MHC class II molecules was evaluated in an ex vivo system.
The test compound was orally administered into C57BL/6mice, and the inhibitory effect with respect to the increased expression of MHC class II in B cells in peripheral blood after oral administration was examined. That is, 10 mL/kg of the test compound dissolved in a vehicle (30% propylene glycol solvent (propylene glycol:cured castor oil (HCO40):Tween 80=4:2:1)/HCl (2 equivalents with respect to the test compound)/water) was orally administered (dose: 0.1 mg/kg, 0.3 mg/kg, 1 mg/kg, or 3 mg/kg) to a C57BL/6mice, and the peripheral blood was collected after 3 hours. 10 μL of RPMI 1640 medium (including 5×10^−5 M of 2-mercaptoethanol, 50 IU/mL of penicillin, and 50 μg/mL of streptomycin) or 10 μL of LPS adjusted with the medium such that the final concentration becomes 100 μg/mL was added to 90 μL of the peripheral blood, and culture was performed at 37° C. for 15 hours in 5% CO2. After culturing, the cells were stained at 4° C. for 30 minutes with FITC-labeled anti-mouse I-A/I-E antibody (BD BIOSCIENCE 553623) and PE-labeled B220 antibody (BD BIOSCIENCE 553090), and hemolysis and fixation were performed at 37° C. for 10 minutes using a buffer (BD BIOSCIENCE Phosflow Lyse/Fix Buffer 558049). After washing, using a flow cytometry system (FACSCanto II, manufactured by BD BIOSCIENCE), an expression level of MHC class II on a B220 positive B cell surface was measured by using a fluorescence intensity of FITC (hereinafter, referred to as MFI) as an indicator. The difference between a MFI at the time of stimulation of LPS and a MFI at the time of unstimulation of LPS was set to a ΔMFI, a ΔMFI of a mouse in which 10 mL/kg of only vehicle was administered was set to 1, and the inhibition rate of ΔMFI by the test compound administration was calculated.

SLE spontaneous model = assay: SLE onset inhibitory effect in spontaneous model using NZB/W F1 mouse; format: in vivo, NZB/W F1 female mice; details: oral 0.3 mg/kg once a day from 20 weeks old, at 41 weeks old
Description: NZB/W F1 mice are used as a model of SLE that spontaneously develops a condition close to humans ([…] et al, Proceedings of the university otago medical school (New Zealand), 1961, Vol. 39, p. 3; Advances in Immunology, 1985, Vol. 37, p. 269-390; Perry et al, Journal of Biomedicine and Biotechnology, 2011, Article ID 271694, Review Article). […] At this time, an individual having greater than 100 mg/dL of urine protein was excluded. […] Furthermore, a pathology evaluation of kidney tissue in the above Test 5 was performed. […] In accordance with histological classification of lupus nephritis by WHO, a histopathological image was classified into Class I (normal glomerulus), Class II (mesangium lesion), Class III (focal segmental glomerulonephritis), Class IV (diffuse glomerulonephritis), and Class VI (progressive sclerosing lupus nephritis).

[4] = oral 1 mg/kg daily Day 0 to Day 14, titer at Day 14

Row | IC50 [1] | IC50 (human cathepsin S) | Structure (SMILES) | inhibition of OVA specific IgG antibody titer in blood plasma [2, 4] | inhibition rate of ΔMFI (increased expression of MHC class II in peripheral blood B cells) ([3]; oral 0.3 mg/kg) | average anti-dsDNA IgG antibody titer (SLE spontaneous model; 10 cases, ELISA) | urine protein (SLE spontaneous model; all individuals of 10 cases) | inhibition rate of ΔMFI (increased expression of MHC class II in peripheral blood B cells) ([3]; oral 1 mg/kg) | inhibition of OVA specific IgG antibody titer in blood plasma ([2]; oral 0.3 mg/kg daily Day 0 to Day 14, titer at Day 14)
1 | 1.2 nM | 2.3 nM | Cl.Cn1ccc2c(-c3ccc(OCCC4CCNCC4)c(C(F)(F)F)c3)nc(C#N)nc21 [Example 2, 7-methyl-4-{4-[2-(piperidin-4-yl)ethoxy]-3-(trifluoromethyl)phenyl}-7H-pyrrolo[2,3-d]pyrimidine-2-carbonitrile monohydrochloride] | 61±10% |  |  |  |  | 
2 |  |  | Cl.Cn1cnc2c(-c3cnc(OCCC4CCNCC4)c(C(F)(F)F)c3)nc(C#N)nc21 [Example 28, 9-methyl-6-{6-[2-(piperidin-4-yl)ethoxy]-5-(trifluoromethyl)pyridin-3-yl}-9H-purine-2-carbonitrile monohydrochloride] | 83±2% | 40±1.4% |  |  |  | 
3 | 0.61 nM |  | CCN1CCC(CCOc2ncc(-c3nc(C#N)nc4c3ncn4C)cc2C(F)(F)F)CC1 [Example 39, 6-{6-[2-(1-ethylpiperidin-4-yl)ethoxy]-5-(trifluoromethyl)pyridin-3-yl}-9-methyl-9H-purine-2-carbonitrile] |  |  | 9,263±1,700 mU/mL | ≤ 100 mg/dL | 61±1.2% | 74±8%
